# Experimental data published in patent US20090143285A1, “TARGET PROTEIN AND TARGET GENE FOR DRUG DISCOVERY AND SCREENING METHOD” (REVERSE PROTEOMICS RESEARCH INSTITUTE CO., LTD., priority 2005, published 2009).
# Substitutions are numbered along the chain they refer to. Entries after “also recorded” stand apart in the source; their conditions may differ.
# Tested on: FLJXXXXX-derived proteins
# Assay: SEC/MS spin column interaction analysis of FLJXXXXX-derived proteins and various compounds (Tables 30-1 to 30-4)
# Format: binding, human
# Conditions: SEC spin column filtrate, spectral intensity increased with doses of compound and protein
row,Compound,FLJ No of the derived protein with which the compound was judged to exhibit a concentration-dependent interaction
1,CN(C)CC/C=C1/c2ccccc2Sc2ccc(Cl)cc21 [chlorprothixene],FLJ38897; also recorded: FLJ41991
2,CN1[C@@H]2CC[C@H]1C[C@@H](OC(c1ccccc1)c1ccccc1)C2 [benztropine],FLJ38897; also recorded: FLJ41991
3,O=C(c1ccc(OCCN2CCCCC2)cc1)c1c(-c2ccc(O)cc2)sc2cc(O)ccc12 [raloxifene],FLJ37909; also recorded: FLJ38897; also recorded: FLJ41991
4,COc1ccc(CCN2CCC(Nc3nc4ccccc4n3Cc3ccc(F)cc3)CC2)cc1 [astemizole],FLJ38897; also recorded: FLJ41991

# Target: T1, FLJ41991-derived protein (Homo sapiens, UniProt P57764, E293G)
# T1 construct: His-tag (N); made in house; host or cells: Escherichia coli BL21star(DE3)pLysS (pDEST17)
# T1 sequence (P57764 265-484 E293G): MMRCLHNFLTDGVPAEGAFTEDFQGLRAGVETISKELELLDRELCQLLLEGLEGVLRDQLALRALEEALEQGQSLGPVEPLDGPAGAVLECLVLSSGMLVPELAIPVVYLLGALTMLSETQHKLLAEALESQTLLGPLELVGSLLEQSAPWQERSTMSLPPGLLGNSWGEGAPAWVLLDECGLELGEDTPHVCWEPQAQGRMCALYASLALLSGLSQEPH
# Assay: SEC/MS interaction analysis, FLJ41991-derived protein (GSDMDC1)
# Format: binding
# Conditions: compound 12.5 μM, protein 0 μM
# Description: (§1) To analyze the interactions between commonly used drugs and proteins expressed from human full-length cDNA clones while keeping both the proteins and the compounds in non-modified, non-immobilized state, size exclusion chromatography (SEC) and mass analysis were used in combination. The specific procedures are shown below.
# (§2) The compound-protein mixture prepared in step 1 was subjected to chromatography using an SEC column, the compound and the protein were separated by SEC, and the compound that interacted with the bound compound or protein contained in the protein fraction was analyzed using a mass analyzer.
# (§3) Protein concentrations were measured using BCA Protein Assay (PIERCE), in consideration of the purity calculated by SDS-PAGE.
# (§4) Mass analysis was performed using LCQ DECA XP (Thermoelectron) or Q-TOF micro (Micromass), equipped with an ESI probe. The LC pump used was Agilent 1100 (Yokogawa Analytical Systems), and the autosampler used was HTC-PAL (CTC Analytics) equipped with a cooling stacker. The SEC column used was a micro-LC column or a 384-well spin column. […]
# (§5) In the 384-well spin column method, Unifilter 100 (Whatman), packed with 10 μL (dry volume) of Bio-Gel P6 (BIO-RAD) and swollen with milliQ water, was used as the SEC column. […] The SEC spin column was mounted on an acetonitrile-aliquoted 384-well U-bottom plate and centrifuged; the SEC spin column filtrate, which is a protein fraction, was recovered in 50% acetonitrile. The protein precipitate produced by the acetonitrile was removed via centrifugation and filtration for deproteinization; the resulting filtrate was concentrated by centrifugal concentration and re-dissolved in 10 μL of 50% methanol to obtain a mass analysis sample. The mobile phase supplied to the mass analyzer was 0.1% formic acid/50% methanol solution in the positive ion mode, and 0.1% ammonia/50% methanol solution in the negative ion mode; these mobile phases were used at a flow rate of 40 μL/min. 2-μL of mass analysis samples were injected using an autosampler at 2-minute intervals; the mass spectral intensity of the compound was measured to retrieve the spectral intensity of the pharmaceutical compound contained in the SEC spin column filtrate (protein fraction eluted from SEC).
row,Compound,spectrum intensity of the compound in the SEC spin column filtrate
1,CN(C)CC/C=C1/c2ccccc2Sc2ccc(Cl)cc21 [chlorprothixene],178622
2,CN1[C@@H]2CC[C@H]1C[C@@H](OC(c1ccccc1)c1ccccc1)C2 [benztropine],143943
3,O=C(c1ccc(OCCN2CCCCC2)cc1)c1c(-c2ccc(O)cc2)sc2cc(O)ccc12 [raloxifene],19251
4,COc1ccc(CCN2CCC(Nc3nc4ccccc4n3Cc3ccc(F)cc3)CC2)cc1 [astemizole],24899

# Same assay, conditions: compound 12.5 μM, protein 5 μM
row,Compound,spectrum intensity of the compound in the SEC spin column filtrate
1,CN(C)CC/C=C1/c2ccccc2Sc2ccc(Cl)cc21 [chlorprothixene],175333
2,CN1[C@@H]2CC[C@H]1C[C@@H](OC(c1ccccc1)c1ccccc1)C2 [benztropine],220928
3,O=C(c1ccc(OCCN2CCCCC2)cc1)c1c(-c2ccc(O)cc2)sc2cc(O)ccc12 [raloxifene],32265
4,COc1ccc(CCN2CCC(Nc3nc4ccccc4n3Cc3ccc(F)cc3)CC2)cc1 [astemizole],60014

# Same assay, conditions: compound 12.5 μM, protein 10 μM
row,Compound,spectrum intensity of the compound in the SEC spin column filtrate
1,CN(C)CC/C=C1/c2ccccc2Sc2ccc(Cl)cc21 [chlorprothixene],226245
2,CN1[C@@H]2CC[C@H]1C[C@@H](OC(c1ccccc1)c1ccccc1)C2 [benztropine],285013
3,O=C(c1ccc(OCCN2CCCCC2)cc1)c1c(-c2ccc(O)cc2)sc2cc(O)ccc12 [raloxifene],67187
4,COc1ccc(CCN2CCC(Nc3nc4ccccc4n3Cc3ccc(F)cc3)CC2)cc1 [astemizole],160855

# Same assay, conditions: compound 12.5 μM, protein 25 μM
row,Compound,spectrum intensity of the compound in the SEC spin column filtrate
1,CN(C)CC/C=C1/c2ccccc2Sc2ccc(Cl)cc21 [chlorprothixene],393132
2,CN1[C@@H]2CC[C@H]1C[C@@H](OC(c1ccccc1)c1ccccc1)C2 [benztropine],489071
3,COc1ccc(CCN2CCC(Nc3nc4ccccc4n3Cc3ccc(F)cc3)CC2)cc1 [astemizole],908771

# Same assay, conditions: compound 25 μM, protein 0 μM
row,Compound,spectrum intensity of the compound in the SEC spin column filtrate
1,CN(C)CC/C=C1/c2ccccc2Sc2ccc(Cl)cc21 [chlorprothixene],161141
2,CN1[C@@H]2CC[C@H]1C[C@@H](OC(c1ccccc1)c1ccccc1)C2 [benztropine],152947
3,O=C(c1ccc(OCCN2CCCCC2)cc1)c1c(-c2ccc(O)cc2)sc2cc(O)ccc12 [raloxifene],37961
4,COc1ccc(CCN2CCC(Nc3nc4ccccc4n3Cc3ccc(F)cc3)CC2)cc1 [astemizole],19274

# Same assay, conditions: compound 25 μM, protein 5 μM
row,Compound,spectrum intensity of the compound in the SEC spin column filtrate
1,CN(C)CC/C=C1/c2ccccc2Sc2ccc(Cl)cc21 [chlorprothixene],149738
2,CN1[C@@H]2CC[C@H]1C[C@@H](OC(c1ccccc1)c1ccccc1)C2 [benztropine],491863
3,O=C(c1ccc(OCCN2CCCCC2)cc1)c1c(-c2ccc(O)cc2)sc2cc(O)ccc12 [raloxifene],52442
4,COc1ccc(CCN2CCC(Nc3nc4ccccc4n3Cc3ccc(F)cc3)CC2)cc1 [astemizole],89714

# Same assay, conditions: compound 25 μM, protein 10 μM
row,Compound,spectrum intensity of the compound in the SEC spin column filtrate
1,CN(C)CC/C=C1/c2ccccc2Sc2ccc(Cl)cc21 [chlorprothixene],277798
2,CN1[C@@H]2CC[C@H]1C[C@@H](OC(c1ccccc1)c1ccccc1)C2 [benztropine],560686
3,O=C(c1ccc(OCCN2CCCCC2)cc1)c1c(-c2ccc(O)cc2)sc2cc(O)ccc12 [raloxifene],119306
4,COc1ccc(CCN2CCC(Nc3nc4ccccc4n3Cc3ccc(F)cc3)CC2)cc1 [astemizole],732296

# Same assay, conditions: compound 25 μM, protein 25 μM
row,Compound,spectrum intensity of the compound in the SEC spin column filtrate
1,CN(C)CC/C=C1/c2ccccc2Sc2ccc(Cl)cc21 [chlorprothixene],490640
2,CN1[C@@H]2CC[C@H]1C[C@@H](OC(c1ccccc1)c1ccccc1)C2 [benztropine],1352077
3,O=C(c1ccc(OCCN2CCCCC2)cc1)c1c(-c2ccc(O)cc2)sc2cc(O)ccc12 [raloxifene],1312562
4,COc1ccc(CCN2CCC(Nc3nc4ccccc4n3Cc3ccc(F)cc3)CC2)cc1 [astemizole],2056843

# Same assay, conditions: compound 62.5 μM, protein 0 μM
row,Compound,spectrum intensity of the compound in the SEC spin column filtrate
1,CN(C)CC/C=C1/c2ccccc2Sc2ccc(Cl)cc21 [chlorprothixene],156021
2,CN1[C@@H]2CC[C@H]1C[C@@H](OC(c1ccccc1)c1ccccc1)C2 [benztropine],911727
3,O=C(c1ccc(OCCN2CCCCC2)cc1)c1c(-c2ccc(O)cc2)sc2cc(O)ccc12 [raloxifene],58164
4,COc1ccc(CCN2CCC(Nc3nc4ccccc4n3Cc3ccc(F)cc3)CC2)cc1 [astemizole],27212

# Same assay, conditions: compound 62.5 μM, protein 5 μM
row,Compound,spectrum intensity of the compound in the SEC spin column filtrate
1,CN(C)CC/C=C1/c2ccccc2Sc2ccc(Cl)cc21 [chlorprothixene],210998
2,CN1[C@@H]2CC[C@H]1C[C@@H](OC(c1ccccc1)c1ccccc1)C2 [benztropine],1861766
3,O=C(c1ccc(OCCN2CCCCC2)cc1)c1c(-c2ccc(O)cc2)sc2cc(O)ccc12 [raloxifene],153267
4,COc1ccc(CCN2CCC(Nc3nc4ccccc4n3Cc3ccc(F)cc3)CC2)cc1 [astemizole],361364

# Same assay, conditions: compound 62.5 μM, protein 10 μM
row,Compound,spectrum intensity of the compound in the SEC spin column filtrate
1,CN(C)CC/C=C1/c2ccccc2Sc2ccc(Cl)cc21 [chlorprothixene],626223
2,CN1[C@@H]2CC[C@H]1C[C@@H](OC(c1ccccc1)c1ccccc1)C2 [benztropine],2757526
3,O=C(c1ccc(OCCN2CCCCC2)cc1)c1c(-c2ccc(O)cc2)sc2cc(O)ccc12 [raloxifene],1091123
4,COc1ccc(CCN2CCC(Nc3nc4ccccc4n3Cc3ccc(F)cc3)CC2)cc1 [astemizole],2309029

# Same assay, conditions: compound 62.5 μM, protein 25 μM
row,Compound,spectrum intensity of the compound in the SEC spin column filtrate
1,CN(C)CC/C=C1/c2ccccc2Sc2ccc(Cl)cc21 [chlorprothixene],2564975
2,CN1[C@@H]2CC[C@H]1C[C@@H](OC(c1ccccc1)c1ccccc1)C2 [benztropine],3061987
3,O=C(c1ccc(OCCN2CCCCC2)cc1)c1c(-c2ccc(O)cc2)sc2cc(O)ccc12 [raloxifene],3195671
4,COc1ccc(CCN2CCC(Nc3nc4ccccc4n3Cc3ccc(F)cc3)CC2)cc1 [astemizole],5171023

# Same assay, conditions: spin column method; doses of both compound and protein varied
row,Compound,interaction judged from spectrum intensity of the compound in the SEC spin column filtrate (protein fraction eluted from SEC)
1,CN(C)CC/C=C1/c2ccccc2Sc2ccc(Cl)cc21 [chlorprothixene],concentration-dependent interaction
2,CN1[C@@H]2CC[C@H]1C[C@@H](OC(c1ccccc1)c1ccccc1)C2 [benztropine],concentration-dependent interaction
3,O=C(c1ccc(OCCN2CCCCC2)cc1)c1c(-c2ccc(O)cc2)sc2cc(O)ccc12 [raloxifene],concentration-dependent interaction
4,COc1ccc(CCN2CCC(Nc3nc4ccccc4n3Cc3ccc(F)cc3)CC2)cc1 [astemizole],concentration-dependent interaction

# Target: T2, FLJ38897-derived protein (Homo sapiens, UniProt P57764)
# T2 construct: His-tag (N); made in house; host or cells: Escherichia coli BL21star(DE3)pLysS
# T2 sequence (P57764 265-484): T1 sequence (P57764 265-484 E293G) with G29E
# Assay: SEC/MS interaction analysis, FLJ38897-derived protein (GSDMDC1)
# Format: binding
# Conditions: spin column method; mixture with protein vs buffer solution alone; data not shown
# Description: as §1, §2, §3, §4, §5
row,Compound,interaction judged from mass spectrum peak intensity of the compound in the spin column filtrate
1,CN(C)CC/C=C1/c2ccccc2Sc2ccc(Cl)cc21 [chlorprothixene],there was an interaction
2,CN1[C@@H]2CC[C@H]1C[C@@H](OC(c1ccccc1)c1ccccc1)C2 [benztropine],there was an interaction
3,O=C(c1ccc(OCCN2CCCCC2)cc1)c1c(-c2ccc(O)cc2)sc2cc(O)ccc12 [raloxifene],there was an interaction
4,COc1ccc(CCN2CCC(Nc3nc4ccccc4n3Cc3ccc(F)cc3)CC2)cc1 [astemizole],there was an interaction
